According to publication PMC12752627, “Discovery of a Potent and Selective TEAD Degrader with Durable Degradation Activity” (Advanced Science, 2025):

Experiments:
[1] = target: CRBN-DDB1 (Homo sapiens, UniProt Q96SW2); assay: CRBN binding assay, biochemical (HTRF); conditions: recombinant CRBN-DDB1, 1 h, read-out: Biochemical CRBN Binary Binding IC50 (nM ± SD)
Protocol: Next, 400 nL of compound solution (initial concentration 10 µM, followed by a three‐fold gradient dilution) was dispensed into the wells using the positive‐pressure‐based I‐DOT dispenser. After 1 h of incubation at room temperature, the HTRF signal was measured using an Envision plate reader (Revvity). Finally, the data were analyzed using non‐linear regression curves in GraphPad Prism 9.5 software.

[2] = target: T1, CRBN (Homo sapiens, UniProt Q96SW2); assay: Intracellular CRBN binding in NanoLuc-CRBN-overexpressing HEK293T cells; assay type: cell-based; conditions: read-out: Cellular CRBN Binding IC50 (nM ± SD)
T1 construct: expressed in transfected cells; host or cells: HEK293T
T1 sequence (Q96SW2 whole entry): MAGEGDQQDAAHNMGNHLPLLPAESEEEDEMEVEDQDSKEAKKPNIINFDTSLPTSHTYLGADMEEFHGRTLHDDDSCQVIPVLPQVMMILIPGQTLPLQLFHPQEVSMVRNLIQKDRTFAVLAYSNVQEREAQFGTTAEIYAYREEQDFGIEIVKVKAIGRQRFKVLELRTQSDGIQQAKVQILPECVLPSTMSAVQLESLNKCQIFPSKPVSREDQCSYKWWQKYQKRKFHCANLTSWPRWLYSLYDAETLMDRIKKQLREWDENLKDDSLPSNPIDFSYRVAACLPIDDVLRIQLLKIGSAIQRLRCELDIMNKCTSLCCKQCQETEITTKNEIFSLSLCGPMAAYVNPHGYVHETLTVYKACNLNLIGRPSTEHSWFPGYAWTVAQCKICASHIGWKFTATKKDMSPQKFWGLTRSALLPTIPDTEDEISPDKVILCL
Protocol: NanoLuc‐CRBN‐overexpressing HEK293T were seeded in 96‐well plates at a density of 2000 per well. The following day, compounds was added to the plate starting from 10 µM for a 3‐fold gradient dilution and incubated for 2 h. […] Finally, the signal was measured using an Envision plate reader (Revvity) and the data were analyzed using the GraphPad Prism 9.5 software.

[3] = target: T2, TEAD1 (Homo sapiens, UniProt P28347+Q96SW2); assay: Immunoblot of TEAD1 degradation in TEAD1-mNeonGreen fusion NCI-H1299 cells; assay type: cell-based; conditions: 10 nM, 6 h, TEAD1-mNeonGreen NCI-H1299 cells
T2 construct: endogenous in cells; host or cells: NCI-H1299 (TEAD1-mNeonGreen knock-in)
T2 sequence (P28347 whole entry, the tested form may be a part): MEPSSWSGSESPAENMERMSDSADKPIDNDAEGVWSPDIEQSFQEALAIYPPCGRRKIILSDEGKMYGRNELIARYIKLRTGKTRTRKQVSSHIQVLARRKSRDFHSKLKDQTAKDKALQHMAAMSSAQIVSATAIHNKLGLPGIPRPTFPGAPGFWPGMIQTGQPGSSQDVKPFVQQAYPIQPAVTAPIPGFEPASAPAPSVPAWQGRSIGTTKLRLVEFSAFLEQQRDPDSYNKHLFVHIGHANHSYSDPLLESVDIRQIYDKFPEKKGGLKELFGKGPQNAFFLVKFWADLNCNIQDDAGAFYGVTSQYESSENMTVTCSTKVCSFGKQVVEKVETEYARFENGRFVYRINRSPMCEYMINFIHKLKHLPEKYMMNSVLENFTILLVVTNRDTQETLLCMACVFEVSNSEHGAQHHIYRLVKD
T2 sequence (Q96SW2 whole entry, the tested form may be a part): as the sequence (Q96SW2 whole entry) above
T2 sequence (Q16531 2-1140 partner limits assumed): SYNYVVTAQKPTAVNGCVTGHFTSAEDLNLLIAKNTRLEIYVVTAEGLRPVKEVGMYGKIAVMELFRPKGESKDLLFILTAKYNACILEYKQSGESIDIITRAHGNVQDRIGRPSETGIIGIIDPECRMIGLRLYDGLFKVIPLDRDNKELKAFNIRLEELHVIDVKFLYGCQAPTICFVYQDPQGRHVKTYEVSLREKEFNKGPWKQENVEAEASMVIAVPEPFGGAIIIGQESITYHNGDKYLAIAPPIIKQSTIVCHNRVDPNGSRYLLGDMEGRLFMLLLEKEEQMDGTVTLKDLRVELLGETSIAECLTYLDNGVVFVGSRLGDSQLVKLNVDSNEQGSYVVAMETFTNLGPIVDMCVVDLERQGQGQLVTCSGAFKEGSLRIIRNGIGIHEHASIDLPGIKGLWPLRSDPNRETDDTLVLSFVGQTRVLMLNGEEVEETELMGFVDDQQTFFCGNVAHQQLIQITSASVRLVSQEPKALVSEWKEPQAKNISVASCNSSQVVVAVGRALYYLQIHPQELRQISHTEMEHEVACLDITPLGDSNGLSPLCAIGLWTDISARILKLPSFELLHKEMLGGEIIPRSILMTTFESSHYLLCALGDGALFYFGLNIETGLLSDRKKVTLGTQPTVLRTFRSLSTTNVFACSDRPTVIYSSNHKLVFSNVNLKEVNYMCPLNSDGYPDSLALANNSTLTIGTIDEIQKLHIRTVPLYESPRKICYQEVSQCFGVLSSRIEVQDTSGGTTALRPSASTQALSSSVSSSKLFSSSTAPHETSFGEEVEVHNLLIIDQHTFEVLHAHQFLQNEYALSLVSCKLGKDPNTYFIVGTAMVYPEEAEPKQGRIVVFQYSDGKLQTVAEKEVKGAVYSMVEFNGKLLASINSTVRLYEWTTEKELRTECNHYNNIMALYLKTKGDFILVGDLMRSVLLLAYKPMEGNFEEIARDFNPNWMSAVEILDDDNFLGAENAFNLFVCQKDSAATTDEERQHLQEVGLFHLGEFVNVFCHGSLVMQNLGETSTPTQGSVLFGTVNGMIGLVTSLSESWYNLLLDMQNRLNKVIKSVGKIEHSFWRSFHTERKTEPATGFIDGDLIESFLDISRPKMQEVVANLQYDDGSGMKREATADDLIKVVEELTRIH
Protocol: (§1) Immunoblotting was carried out as previously described.^[ [29] ^] Cells were seeded in 6‐well plates (Yeasen, #84011ES50) at a density of 1 million cells per well. The following day, cells were treated with compounds at the required concentrations, with the DMSO concentration kept below 0.4‰ to prevent toxic effects on the cells. The collected cell pellets were washed three times with PBS (Meilunbio, #MA0015) and resuspended in 120 µL of RIPA lysis buffer (Meilunbio, #MA0151) containing 1% protease inhibitor (Meilunbio, #MB2678‐2). The cells were then sonicated on ice and centrifuged at 12 000 rpm for 15 min at 4 °C to remove cellular debris. Protein concentrations were determined using the BCA Protein Quantification Kit (Meilunbio, #MA0082‐1). The protein samples were normalized, boiled at 99 °C for 10 min, and then subjected to electrophoresis on a 10% SDS‐PAGE gel. The separated protein bands were transferred to nitrocellulose membranes, blocked with TBST containing 5% BSA, and incubated with the indicated primary antibodies. Finally, the blots were imaged using an Amersham Typhoon NIR imager.

[4] = target: TEAD1 (Homo sapiens, UniProt P28347); assay: Immunoblot in wild-type / CRBN-knockout HEK293T cells and rescue experiment; assay type: cell-based; parameters: endogenous in cells; host or cells: HEK293T wild-type and CRBN-knockout; conditions: HEK293T cells, 1 h pretreatment
Chain of TEAD1 (Homo sapiens, UniProt P28347) (P28347 whole entry): as the sequence (P28347 whole entry, the tested form may be a part) above
Protocol: as §1

[5] = system: A172 cells; assay: Cell viability assay (CTG, 72 h) A172; assay type: cell-based; conditions: 3-day compound treatment
Protocol: (§2) Cells were seeded at a density of 1000 cells per well in 96‐well flat‐bottomed cell culture plates and cultured overnight at 37 °C with 5% CO2 to allow for cell attachment. The following day, different concentrations of compounds were added using an I‐DOT dispenser. After 72 h, 25 µL of CellTiter‐Meiluncell Luminescent Cell Viability Reagent (Meilunbio, #PWL111‐2) was added and incubated for 15 min at room temperature. Luminescence signals were then measured using an Envision plate reader (Revvity). Data were analyzed using GraphPad Prism 9.5 software.^[ [30] ^]

[6] = system: ES2 cells; assay: Cell viability assay (CTG, 72 h) ES2; assay type: cell-based; conditions: 3-day compound treatment
Protocol: as §2

[7] = system: KLE cells; assay: Cell viability assay (CTG, 72 h) KLE; assay type: cell-based; conditions: 3-day compound treatment
Protocol: as §2

[8] = system: HOS cells; assay: Cell viability assay (CTG, 72 h) HOS; assay type: cell-based; conditions: 3-day compound treatment
Protocol: as §2

[9] = system: 867 cancer cell lines; assay: PRISM assay (barcoded cell line screening, 5 days); assay type: cell-based;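 note: top test concentration 10 mM in eight-point dilution series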
Protocol: The principle of the PRISM assay has been described elsewhere and was conducted as previously outlined by the PRISM team at the Broad Institute.^[ [14], [31] ^] In PRISM (MTS027) experiments, KG‐FP‐003 was tested across 867 different cancer cell lines. Cells were treated with eight concentration gradients, ranging from 4.6 nM to […], in triplicate dilutions over a period of five days. Each plate was treated with 20 µM bortezomib as a positive control and DMSO as a negative control. Three replicate experiments were performed for each compound. The resulting data were analyzed using GraphPad PRISM 9.5.

Chain of CRBN-DDB1 (Q96SW2 whole entry): as the sequence (Q96SW2 whole entry) above

| IC50 [1] [nM] | IC50 [2] [nM] | Rescue: effect of pretreatment on KG-FP-003-mediated TEAD1 degradation [4] | Compound | further results |
| --- | --- | --- | --- | --- |
| 126 ± 47 | 426 ± 176 | – | CNC(=O)c1cc2c(c(F)c1-c1c(Cl)c(F)cc3c1C[C@@](CNC(=O)CCCCC(=O)Nc1ccc4c(c1)C(=O)N(C1CCC(=O)NC1=O)C4=O)(c1ccccc1)O3)[C@@H](O)[C@@H](C)C2 (stereo partly drawn) [KG-FP-008] | – |
| 152 ± 12 | 1380 ± 794 | – | CNC(=O)c1cc2c(c(F)c1-c1c(Cl)c(F)cc3c1C[C@@](CN[C@H]1CC[C@H](C(=O)N4CCC(CC5CCN(C(=O)COc6ccc7c(c6)C(=O)N(C6CCC(=O)NC6=O)C7=O)CC5)CC4)CC1)(c1ccccc1)O3)[C@@H](O)[C@@H](C)C2 (stereo partly drawn) [KG-FP-009] | Target degradation by immunoblot [3]: significant target degradation |
| 474 ± 14 | 1700 ± 384 | – | CNC(=O)c1cc2c(c(F)c1-c1c(Cl)c(F)cc3c1C[C@@](CN[C@H]1CC[C@H](C(=O)NCCCCC(=O)Nc4ccc(C)c(N5CCC(=O)NC5=O)c4)CC1)(c1ccccc1)O3)[C@@H](O)[C@@H](C)C2 [KG-FP-010] | – |
| – | – | effectively blocked | NS(=O)(=O)OC[C@@H]1C[C@@H](n2ccc3c(N[C@H]4CCc5ccccc54)ncnc32)C[C@@H]1O [MLN4924] | – |
| – | – | – | C=C(F)C(=O)N1C[C@@H](Nc2ncccn2)[C@H](OCc2ccc(C(F)(F)F)cc2)C1 [MYF-03-176, reference compound] | IC50 [5]: > 3000 nM; IC50 [6]: > 2000 nM; IC50 [7]: 1410 ± 479 nM; IC50 [8]: 922 ± 404 nM; PRISM AUC ([9]; Cell line: A172, 5 days): 0.59; PRISM AUC ([9]; Cell line: ES2, 5 days): 1.00; PRISM AUC ([9]; Cell line: HOS, 5 days): 0.90; PRISM AUC ([9]; Cell line: KLE, 5 days): 1.00 |
| – | – | effectively blocked | CC(C)C[C@H](NC(=O)[C@H](Cc1ccccc1)NC(=O)c1cnccn1)B(O)O [bortezomib] | – |

| Compound | IC50 [1] [nM] | IC50 [2] [nM] | Rescue: effect of pretreatment on KG-FP-003-mediated TEAD1 degradation [4] | further results |
| --- | --- | --- | --- | --- |
| Nc1cccc2c1CN(C1CCC(=O)NC1=O)C2=O (stereo not drawn) [Lenalidomide, lenalidomide] | – | – | effectively blocked | – |
